The source made the active and inactive calls. The calls are words filed in the database; no cut-off is given here.
Experiments:
[1] = system: Mus musculus; experiment: Hypoglycemic activity in lean normal BALB/c mouse assessed as blood glucose level at equimolar dose of 0.5 mmol/kg galegine administered daily through diet for 7 days; type: functional, organism-based
[2] = system: Mus musculus; experiment: Antiobesity activity in lean normal BALB/c mouse assessed as change in average daily food intake at equimolar dose of 0.5 mmol/kg galegine administered daily through diet for 7 days; type: functional, organism-based
[3] = system: Mus musculus; experiment: Antiobesity activity in lean normal BALB/c mouse assessed as change in average daily weight at equimolar dose of 0.5 mmol/kg galegine administered daily through diet for 7 days; type: functional, organism-based
[4] = system: Mus musculus; experiment: Antidiabetic activity in lean normal BALB/c mouse assessed as effect on blood lactate level at equimolar dose of 0.5 mmol/kg galegine administered daily through diet for 7 days; type: functional, organism-based
[5] = system: Mus musculus; experiment: Hypoglycemic activity in lean normal BALB/c mouse assessed as blood glucose level at 0.51 mmol/kg/day administered through diet for 7 days relative to time-matched control; type: functional
[6] = system: Mus musculus; experiment: Antiobesity activity in lean normal BALB/c mouse assessed as change in average daily food intake at 0.51 mmol/kg/day administered through diet for 7 days relative to time-matched control; type: functional
[7] = system: Mus musculus; experiment: Antiobesity activity in lean normal BALB/c mouse assessed as change in average daily weight at 0.51 mmol/kg/day administered through diet for 7 days relative to time-matched control; type: functional
[8] = system: Mus musculus; experiment: Toxicity in lean normal BALB/c mouse assessed as overt signs of behavioural changes at equimolar dose of 0.5 mmol/kg galegine administered daily through diet for 7 days; type: organism-based; conditions: in vivo, po, 168 h
[9] = system: Mus musculus; experiment: Antiobesity activity in lean normal BALB/c mouse assessed as change in average daily food intake at 0.72 mmol/kg/day administered through diet for 7 days relative to time-matched control; type: functional
[10] = system: Mus musculus; experiment: Antiobesity activity in lean normal BALB/c mouse assessed as change in average daily weight at 0.72 mmol/kg/day administered through diet for 7 days relative to time-matched control; type: functional
[11] = Metabolic stability in ob/ob mouse liver microsomes assessed as oxidative hydroxylation at 50 uM after 45 mins by HPLC-MS analysis; type: ADME, Microsome; conditions: 0.75 h
[12] = system: Mus musculus; experiment: Hypoglycemic activity in lean normal BALB/c mouse assessed as blood glucose level at 0.72 mmol/kg/day administered through diet for 7 days relative to time-matched control; type: functional
[13] = system: Mus musculus; experiment: Antiobesity activity in lean normal BALB/c mouse assessed as change in average daily food intake at 0.52 mmol/kg/day administered through diet for 7 days relative to time-matched control; type: functional
[14] = system: Mus musculus; experiment: Antiobesity activity in lean normal BALB/c mouse assessed as change in average daily weight at 0.52 mmol/kg/day administered through diet for 7 days relative to time-matched control; type: functional
[15] = system: Mus musculus; experiment: Hypoglycemic activity in lean normal BALB/c mouse assessed as blood glucose level at 0.52 mmol/kg/day administered through diet for 7 days relative to time-matched control; type: functional
[16] = system: Mus musculus; experiment: Antiobesity activity in lean normal BALB/c mouse assessed as change in average daily food intake at 0.60 mmol/kg/day administered through diet for 7 days relative to time-matched control; type: functional
[17] = system: Mus musculus; experiment: Antiobesity activity in lean normal BALB/c mouse assessed as change in average daily weight at 0.60 mmol/kg/day administered through diet for 7 days relative to time-matched control; type: functional
[18] = system: Mus musculus; experiment: Hypoglycemic activity in lean normal BALB/c mouse assessed as blood glucose level at 0.5 mmol/kg/day administered through diet for 7 days relative to time-matched control; type: functional
[19] = system: Mus musculus; experiment: Antiobesity activity in lean normal BALB/c mouse assessed as change in average daily food intake at 0.5 mmol/kg/day administered through diet for 7 days relative to time-matched control; type: functional
[20] = system: Mus musculus; experiment: Antiobesity activity in lean normal BALB/c mouse assessed as change in average daily weight at 0.5 mmol/kg/day administered through diet for 7 days relative to time-matched control; type: functional
[21] = system: Mus musculus; experiment: Antiobesity activity in lean normal BALB/c mouse assessed as change in average daily food intake at 0.62 mmol/kg/day administered through diet for 7 days relative to time-matched control; type: functional
[22] = system: Mus musculus; experiment: Antiobesity activity in lean normal BALB/c mouse assessed as change in average daily weight at 0.62 mmol/kg/day administered through diet for 7 days relative to time-matched control; type: functional
[23] = system: Mus musculus; experiment: Antiobesity activity in lean normal BALB/c mouse assessed as change in average daily food intake at 0.40 mmol/kg/day administered through diet for 7 days relative to time-matched control; type: functional
[24] = system: Mus musculus; experiment: Antiobesity activity in lean normal BALB/c mouse assessed as change in average daily weight at 0.40 mmol/kg/day administered through diet for 7 days relative to time-matched control; type: functional
[25] = system: Mus musculus; experiment: Hypoglycemic activity in lean normal BALB/c mouse assessed as blood glucose level at 0.40 mmol/kg/day administered through diet for 7 days relative to time-matched control; type: functional
[26] = system: Mus musculus; experiment: Antiobesity activity in lean normal BALB/c mouse assessed as change in average daily food intake at 0.70 mmol/kg/day administered through diet for 7 days relative to time-matched control; type: functional
[27] = system: Mus musculus; experiment: Antiobesity activity in lean normal BALB/c mouse assessed as change in average daily weight at 0.70 mmol/kg/day administered through diet for 7 days relative to time-matched control; type: functional
[28] = system: Mus musculus; experiment: Hypoglycemic activity in lean normal BALB/c mouse assessed as blood glucose level at 0.70 mmol/kg/day administered through diet for 7 days relative to time-matched control; type: functional
[29] = system: Mus musculus; experiment: Antiobesity activity in lean normal BALB/c mouse assessed as change in average daily food intake at 0.57 mmol/kg/day administered through diet for 7 days relative to time-matched control; type: functional
[30] = system: Mus musculus; experiment: Hypoglycemic activity in lean normal BALB/c mouse assessed as blood glucose level at 0.57 mmol/kg/day administered through diet for 7 days relative to time-matched control; type: functional
[31] = system: Mus musculus; experiment: Antiobesity activity in lean normal BALB/c mouse assessed as change in average daily weight at 0.57 mmol/kg/day administered through diet for 7 days relative to time-matched control; type: functional
[32] = system: Mus musculus; experiment: Hypoglycemic activity in high fat diet-induced obese BALB/c mouse model assessed as blood glucose level at 0.38 mmol/kg/day administered through diet for 28 days relative to time-matched control; type: functional
[33] = system: Mus musculus; experiment: Antiobesity activity in high fat diet-induced obese BALB/c mouse model assessed as change in average daily body weight at 0.38 mmol/kg/day administered through diet for 28 days relative to time-matched control; type: functional
[34] = system: Mus musculus; experiment: Antiobesity activity in ob/ob mouse model assessed as change in average daily food intake at 0.26 mmol/kg/day administered through diet for 28 days relative to time-matched control; type: functional
[35] = system: Mus musculus; experiment: Antiobesity activity in ob/ob mouse model assessed as change in average daily weight at 0.26 mmol/kg/day administered through diet for 28 days relative to time-matched control; type: functional
[36] = system: Mus musculus; experiment: Hypoglycemic activity in ob/ob mouse model assessed as blood glucose level at 0.26 mmol/kg/day administered through diet for 28 days relative to time-matched control; type: functional
[37] = system: Mus musculus; experiment: Antiobesity activity in high fat diet-induced obese BALB/c mouse model assessed as change in average daily food intake at 0.38 mmol/kg/day administered through diet for 28 days relative to time-matched control; type: functional

| SMILES | Activity [1] | Activity [2] | Activity [3] | Activity [4] | other results |
| --- | --- | --- | --- | --- | --- |
| COc1ccc(OC)c(CNC(=N)N)c1 | inactive | inactive | inactive | inactive | – |
| C=CCNC(=N)N | inactive | inactive | inactive | inactive | – |
| CC(C)=CCNC1=NCCN1 | inactive | inactive | inactive | inactive | – |
| N=C(N)NCc1ccccc1Br | – | – | – | – | Activity [5]: 84%; Activity [6]: -17.7%; Activity [7]: -6%; Activity [8]: Non-toxic |
| N=C(N)NCCCCNC(=N)N | inactive | inactive | inactive | inactive | – |
| N=C(N)NCc1cccs1 | – | – | – | – | Activity [9]: 5.6%; Activity [10]: -2.3%; Activity [11]: Stable; Activity [8]: Non-toxic; Activity [12]: 88% |
| COc1ccc(CNC(=N)N)cc1OC | inactive | inactive | inactive | inactive | – |
| COc1cccc(CNC(=N)N)c1OC | inactive | inactive | inactive | inactive | – |
| COc1ccc(CNC(=N)N)c(OC)c1 | inactive | inactive | inactive | inactive | – |
| CC(C)=CCNc1ccccn1 | inactive | inactive | inactive | inactive | – |
| CC(C)=CCNC(=N)NC#N | inactive | inactive | inactive | inactive | – |
| N=C(N)NCc1ccc(O)cc1 | inactive | inactive | inactive | inactive | – |
| N=C(N)NCc1ccc(Br)cc1 | – | – | – | – | Activity [13]: -36.7%; Activity [8]: Non-toxic; Activity [14]: -23.3%; Activity [15]: 51% |
| N=C(N)NCc1c(F)cccc1Cl | inactive | inactive | inactive | inactive | – |
| COc1ccccc1CNC(=N)N | – | – | – | – | Activity [16]: -4.1%; Activity [17]: -7%; Activity [8]: Non-toxic |
| CSCCCNC(=N)N | inactive | inactive | inactive | inactive | – |
| CC(C)=CCNC=N | – | – | – | – | Activity [18]: inactive; Activity [19]: inactive; Activity [20]: inactive |
| N=C(N)NCc1ccccc1C(F)(F)F | inactive | inactive | inactive | inactive | – |
| N=C(N)NCC1CCCCC1 | inactive | inactive | inactive | inactive | – |

| SMILES | Activity [1] | Activity [2] | Activity [3] | Activity [4] | other results |
| --- | --- | --- | --- | --- | --- |
| [H]/N=C(/N)N/C(=N/[H])NCCc1ccccc1 [PHENFORMIN] | – | – | – | – | Activity [21]: -3.4%; Activity [11]: Unstable; Activity [22]: -0.14%; Activity [8]: Non-toxic |
| N=C(N)NCc1ccc(Cl)c(Cl)c1 | – | – | – | – | Activity [23]: -38.3%; Activity [24]: -9.9%; Activity [8]: Non-toxic; Activity [25]: 67% |
| Cc1ccccc1CNC(=N)N | inactive | inactive | inactive | inactive | – |
| Cc1ccc(CNC(=N)N)cc1 | inactive | inactive | inactive | inactive | – |
| N=C(N)NCc1ccc(C(F)(F)F)cc1 | – | – | – | – | Activity [26]: -12.7%; Activity [27]: -10.6%; Activity [8]: Non-toxic; Activity [28]: 75% |
| CCOc1ccc(CNC(=N)N)cc1 | inactive | inactive | inactive | inactive | – |
| CC(C)=CCNc1ncccn1 | inactive | inactive | inactive | inactive | – |
| N=C(N)NCc1ccccc1Cl | – | – | – | – | Activity [29]: -21.1%; Activity [30]: 82%; Activity [31]: -10.7%; Activity [8]: Non-toxic |
| NC(N)=NCc1ccc2c(c1)OCO2 | – | – | – | – | Activity [16]: -18%; Activity [17]: -2%; Activity [8]: Non-toxic |
| CSCCNC(=N)N | inactive | inactive | inactive | inactive | – |
| CC(C)CCNC(=N)N | inactive | inactive | inactive | inactive | – |
| N=C(N)NCc1ccccn1 | inactive | inactive | inactive | inactive | – |
| N=C(N)NCC1CCCO1 (configuration not stated) | inactive | inactive | inactive | inactive | – |
| CC(C)=CCN=C(N)N [GALEGINE] | – | – | – | – | Activity [32]: 77%; Activity [33]: -9%; Activity [18]: 53%; Activity [34]: -29.2%; Activity [35]: -7.3%; Activity [19]: -36.3%; Activity [36]: 91%; Activity [20]: -16.6%; Activity [8]: Non-toxic; Activity [37]: -23.6% |
| COc1ccc(CNC(=N)N)cc1 | inactive | inactive | inactive | inactive | – |
| COc1ccc(CNC(=N)N)c(OC)c1OC | inactive | inactive | inactive | inactive | – |
| N=C(N)N1CCc2ccccc2C1 | inactive | inactive | inactive | inactive | – |
| COc1cccc(CNC(=N)N)c1 | inactive | inactive | inactive | inactive | – |

— ChEMBL document CHEMBL1136921, “Benzylguanidines and other galegine analogues inducing weight loss in mice” (J Med Chem, 2009)
